Test results reported in US20160095867A1, “BET INHIBITION THERAPY FOR HEART DISEASE” (DANA-FARBER CANCER INSTITUTE, INC., priority 2013, published 2016).

Columns and labels:
NRVM = assay: PE-mediated pathologic gene induction in NRVM (qRT-PCR, gene expression profiling); type: cell-based, rat
Method: NRVM were isolated from the hearts of 2 day old Sprague-Dawley rat pups (Charles River) and maintained under standard conditions as described (Haldar et al., 2010). The cells were differentially plated for 1.5 h in cell culture dishes to remove contaminating non-myocytes. Unless otherwise stated, NRVM were plated at a density of 10^5 cells/mL. Cells were initially plated in growth medium (DMEM supplemented with 5% FBS, 100 U/mL penicillin-streptomycin, and 2 mM L-glutamine) for 24-36 hours and maintained in serum-free media thereafter (DMEM supplemented with 0.1% BSA, 1% insulin-transferrin-selenium liquid media supplement (Sigma 13146), 100 U/mL penicillin-streptomycin, and 2 mM L-glutamine). Media was changed every 2-3 days. Prior to stimulation with agonists, NRVM were maintained in serum-free medium for 48-72 hours. For hypertrophic stimulation, NRVM were incubated with JQ1 versus DMSO at indicated concentrations for 6 h followed by stimulation with PE (100 μM) for indicated timepoints.
For tissue RNA, a 10-20 mg piece of mouse heart tissue was preserved in RNA Later stabilization reagent (Qiagen) followed by mechanical disruption/homogenization in PureZOL (BioRad) on a TissueLyser (Qiagen) using stainless steel beads (Qiagen). The aqueous phase was extracted with chloroform. RNA was purified from the aqueous phase using the Aurum purification kit (BioRad #732-6830) following manufacturer's instructions. For cellular samples, total RNA from NRVM was isolated using the High Pure RNA isolation kit (Roche #11828665001) with on-column DNAase treatment according to manufacturer's directions. Purified RNA was reverse transcribed to complementary DNA using the iScript™ RT Supermix (Biorad #170-8841) following manufacturer's protocol. Quantitative real-time PCR was performed using TaqMan chemistry (Fast Start Universal Probe Master (Roche cat#4914058001) and labeled probes from the Roche Universal Probe Library System) on a Roche LightCycler. Relative expression was calculated using the AACt-method with normalization to constitutive genes as indicated.
To determine the transcriptional effects of BET bromodomain inhibition during hypertrophic transformation, gene expression profiling (GEP) studies were performed in cultured NRVM at baseline and after PE stimulation (1.5, 6, 48 h) in the presence or absence of JQ1. These three timepoints were assessed to capture induction of early response genes such as c-Myc (Starksen et al., 1986) and the final hypertrophic gene program. […] A heat map of genes selected based on the highest magnitude of PE-mediated changes illustrates each of these clusters (FIG. 3A). […]

BRD4 = target: T1, BRD4 (Rattus norvegicus, UniProt A0A8I6A216); assay: ChIP-qPCR of BRD4 and Pol II at the IL6 proximal promoter in NRVM; type: cell-based; conditions: JQ1 500 nM, PE 100 μM, 90 min
T1 construct: endogenous in cells; host or cells: NRVM (primary neonatal rat ventricular cardiomyocytes)
Method: NRVM were plated in 15 cm dishes at 5×10^6 cells/dish. Chromatin pooled from approximately 15×10^6 NRVM were used for each immunoprecipitation. After indicated treatments, NRVM were fixed directly on the dish with 1% formaldehyde for 10 minutes followed by quenching with 0.125M glycine for 5 minutes. Chromatin was extracted, followed by shearing on a BioRuptor (Diagenode; total 16 cycles, hi-power, 30 sec on/off). The sonicated chromatin was immunoprecipitated with 5 μg of antibody bound to Dynabeads (Invitrogen) followed by extensive washing and elution. Immunoprecipitate and input chromatin samples were then reverse cross-linked followed by purification of genomic DNA. Target and non-target regions of genomic DNA were amplified by qRT-PCR in both the immunoprecipitates and input samples using Sybrgreen chemistry. Enrichment data were analyzed by calculating the immunoprecipitated DNA percentage of input DNA for each sample as previously described (Ott et al., 2012). Antibodies used in ChIP were BRD4 (Bethyl #A301-985A) and RNA Polymerase II (Santa Cruz N-20, sc-899).

[1] = Treadmill endurance exercise capacity in mice; type: in vivo, mouse; conditions: JQ1 50 mg/kg/day IP, 2-3 weeks (17 days)
Text: For transthoracic echocardiography, mice were anesthetized with 1% inhalational isofluorane and imaged using the Vevo 770 High Resolution Imaging System (Visual Sonics, Inc.) and the RMV-707B 30 MHz probe. Measurements were obtained from M-mode sampling and integrated EKV images taken in the LV short axis at the mid-papillary level (Haldar et al., 2010). Measurements of pressure gradients across the constricted portion of the aorta were obtained by high frequency Doppler as previously described (Liu et al., 2012). Conscious tail-vein systolic blood pressure was measured using the BP2000 Blood Pressure Analysis System (Visitech Systems, Inc.) as recommended by the manufacturer. To allow mice to adapt to the apparatus, we performed daily blood pressure measurements for one week prior to beginning experiments. Treadmill endurance exercise testing was performed on a motorized mouse treadmill (Columbus Instruments) as previously described (Haldar et al., 2012).

mice with PE infusion = assay: Chronic phenylephrine (PE) infusion model of cardiac hypertrophy; type: in vivo, mouse; conditions: PE 75 mg/kg/day minipump, JQ1 from 1.5 days after installation
Text: All mice were C57Bl/6J littermate males aged 10-12 weeks. For TAC, mice were anesthetized with ketamine/xylazine, mechanically ventilated (Harvard apparatus), and subject to thoracotomy. The aortic arch was constricted between the left and right carotid arteries using a 7.0 silk suture and a 27-gauge needle as previously described (Hu et al., 2003). In our hands, this protocol a consistent peak pressure gradient of approximately 50 mmHg across the constricted portion of the aorta. For PE infusion, mice were anesthetized using continuous 1% inhalational isofluorane. Mini-osmotic pumps (Alzet 2004, Durect Corp.) were filled with phenylephrine hydrochloride (PE, Sigma) or vehicle (normal saline) and implanted subcutaneously on the dorsal aspect of the mouse. PE was infused at a dose of 75 mg/kg/day for 17 days. Injections of JQ1 or vehicle were begun 1.5 days postoperatively.
For transthoracic echocardiography, mice were anesthetized with 1% inhalational isofluorane and imaged using the Vevo 770 High Resolution Imaging System (Visual Sonics, Inc.) and the RMV-707B 30 MHz probe. Measurements were obtained from M-mode sampling and integrated EKV images taken in the LV short axis at the mid-papillary level (Haldar et al., 2010). […] Conscious tail-vein systolic blood pressure was measured using the BP2000 Blood Pressure Analysis System (Visitech Systems, Inc.) as recommended by the manufacturer. […]

mice subject to TAC = assay: TAC model with pre-established pathology, JQ1 begun day 18 post-TAC; type: in vivo, mouse
Text: Adult mice were subjected to pressure overload using transverse aortic constriction (TAC). JQ1 or vehicle was begun on day 18 post-TAC, a time point when significant pathology has already developed (FIG. 11). […] (N=6-12 per group). […] For example, patients typically present with pre-existing or established cardiac hypertrophy and/or heart failure.

[2] = adult mice, 50 mg/kg/day; cited from earlier work

Cc1sc2c(c1C)C(c1ccc(Cl)cc1)=N[C@@H](CC(=O)OC(C)(C)C)c1nnc(C)n1-2 [JQ1]
PE-mediated gene induction, global gene expression profiling (NRVM; 500 nM JQ1, 100 μM PE, 1.5, 6, 48 h): attenuate or completely abrogate | PE-mediated c-myc induction (qRT-PCR) (NRVM; JQ1 500 nM, PE 100 μM): does not suppress | PE-mediated induction of IL6 (qRT-PCR) (NRVM; JQ1 500 nM, PE 100 μM): significantly attenuated | PE mediated pathologic gene induction (hypertrophic marker genes, qRT-PCR) (NRVM; JQ1 500 nM, PE 100 μM, 48 h): significantly blocked | recruitment of endogenous BRD4 and Pol II to the proximal promoter of IL6 in response to PE (BRD4): blocked this recruitment | endurance exercise capacity (time to exhaustion) [1]: preserved endurance exercise capacity | LV systolic function during chronic PE infusion (mice with PE infusion): without any compromise | development of pathologic cardiac hypertrophy during chronic PE infusion (mice with PE infusion): potently suppressed | progression of LV cavity dilation (mice subject to TAC): significantly attenuates | progression of LV systolic dysfunction (mice subject to TAC): significantly attenuates | progression of LV wall thickening (mice subject to TAC): significantly attenuates | progression of cardiomegaly (mice subject to TAC): significantly attenuates | toxicity on chronic administration [2]: without significant toxicity
